The values below come from PMC12368656 (2025).

Experiment [1] concerns 3′-methylene blue- and 5′-thiol-modified oligonucleotide with affinity toward vancomycin (aptamer probe) (DNA, aptamer) CGAGGGTACCGCAATAGTACTTATTGTTCGCCTATTGTGGGTCGG
In words: electrochemical aptamer-based sensor, SWV titration, planar gold electrode. The following applies: Na+ (0.5 wt % NaCl); artificial sweat (0.1 wt % urea, 0.1 wt % lactic acid), pH 6.5, room temperature; apparent.

The test system is the same in experiment [2]. In words: electrochemical aptamer-based sensor, SWV titration, gold-coated microstructured electrode (MSE). The following applies: Na+ (0.5 wt % NaCl); artificial sweat (0.1 wt % urea, 0.1 wt % lactic acid), pH 6.5, room temperature; apparent.

The structures appear in SMILES notation.

`CN[C@H](CC(C)C)C(=O)N[C@H]1C(=O)N[C@@H](CC(N)=O)C(=O)N[C@H]2C(=O)N[C@H]3C(=O)N[C@H](C(=O)N[C@H](C(=O)O)c4cc(O)cc(O)c4-c4cc3ccc4O)[C@H](O)c3ccc(c(Cl)c3)Oc3cc2cc(c3O[C@@H]2O[C@H](CO)[C@@H](O)[C@H](O)[C@H]2O[C@H]2C[C@](C)(N)[C@H](O)[C@H](C)O2)Oc2ccc(cc2Cl)[C@H]1O`: the results for the KD in experiment [1] and in experiment [2] were 26.3 ± 3.3 µM and 46.6 ± 4.1 µM, respectively.
